Earlier results on four compounds are cited in patent publication US10548906B2, “Methods of promoting hepatic regeneration” (Intercept Pharmaceuticals, Inc., priority 2015, dated 2020).

One data set relates to mice. To be noted: diet enriched with cholic acid, FXR dependent; cited from earlier work.
A further data set concerns Ntcp. To be noted: mice with intrahepatic (but not extrahepatic) cholestasis; cited from earlier work.
A further data set concerns cholestatic animals. To be noted: cited from earlier work.

Structures are written as SMILES.

On to `C[C@H](CCC(=O)O)[C@H]1CC[C@H]2[C@@H]3[C@H](O)C[C@@H]4C[C@H](O)CC[C@]4(C)[C@H]3C[C@H](O)[C@]12C` [cholic acid], for which, in the data set on mice, the liver growth result is “induced spontaneous liver growth”. As to `CC(C)c1onc(-c2c(Cl)cccc2Cl)c1COc1ccc(/C=C/c2cccc(C(=O)O)c2)c(Cl)c1` [GW4064], the Ntcp regulation result with Ntcp was “loss of Ntcp suppression”. With `Cc1c(-c2cnccn2)ssc1=S` [oltipraz], the biliary injury entry in the data set on cholestatic animals is listed as “increase in biliary injury”.

As for `C[C@H](CCC(=O)O)[C@H]1CC[C@H]2[C@@H]3[C@@H](O)C[C@@H]4C[C@H](O)CC[C@]4(C)[C@H]3CC[C@]12C` [ursodeoxycholic acid], in the data set with cholestatic animals, the biliary injury entry is “increase in biliary injury”.
